Here are results for 5 compounds from ChEMBL document CHEMBL4028801, “A multifactorial approach to hepatobiliary transporter assessment enables improved therapeutic compound development” (Toxicol Sci, 2013).

SMILES strings stand for the structures.

Series [1] in a line: Drug concentration at steady state in human at 100 to 600 mg, po QD after 24 hrs. Format: ADME, organism-based. To be noted: in vivo, read-out: Css.
For series [2], the target named is T1, ATP-binding cassette sub-family C member 4 (Homo sapiens, UniProt O15439).
T1 sequence (O15439 whole entry): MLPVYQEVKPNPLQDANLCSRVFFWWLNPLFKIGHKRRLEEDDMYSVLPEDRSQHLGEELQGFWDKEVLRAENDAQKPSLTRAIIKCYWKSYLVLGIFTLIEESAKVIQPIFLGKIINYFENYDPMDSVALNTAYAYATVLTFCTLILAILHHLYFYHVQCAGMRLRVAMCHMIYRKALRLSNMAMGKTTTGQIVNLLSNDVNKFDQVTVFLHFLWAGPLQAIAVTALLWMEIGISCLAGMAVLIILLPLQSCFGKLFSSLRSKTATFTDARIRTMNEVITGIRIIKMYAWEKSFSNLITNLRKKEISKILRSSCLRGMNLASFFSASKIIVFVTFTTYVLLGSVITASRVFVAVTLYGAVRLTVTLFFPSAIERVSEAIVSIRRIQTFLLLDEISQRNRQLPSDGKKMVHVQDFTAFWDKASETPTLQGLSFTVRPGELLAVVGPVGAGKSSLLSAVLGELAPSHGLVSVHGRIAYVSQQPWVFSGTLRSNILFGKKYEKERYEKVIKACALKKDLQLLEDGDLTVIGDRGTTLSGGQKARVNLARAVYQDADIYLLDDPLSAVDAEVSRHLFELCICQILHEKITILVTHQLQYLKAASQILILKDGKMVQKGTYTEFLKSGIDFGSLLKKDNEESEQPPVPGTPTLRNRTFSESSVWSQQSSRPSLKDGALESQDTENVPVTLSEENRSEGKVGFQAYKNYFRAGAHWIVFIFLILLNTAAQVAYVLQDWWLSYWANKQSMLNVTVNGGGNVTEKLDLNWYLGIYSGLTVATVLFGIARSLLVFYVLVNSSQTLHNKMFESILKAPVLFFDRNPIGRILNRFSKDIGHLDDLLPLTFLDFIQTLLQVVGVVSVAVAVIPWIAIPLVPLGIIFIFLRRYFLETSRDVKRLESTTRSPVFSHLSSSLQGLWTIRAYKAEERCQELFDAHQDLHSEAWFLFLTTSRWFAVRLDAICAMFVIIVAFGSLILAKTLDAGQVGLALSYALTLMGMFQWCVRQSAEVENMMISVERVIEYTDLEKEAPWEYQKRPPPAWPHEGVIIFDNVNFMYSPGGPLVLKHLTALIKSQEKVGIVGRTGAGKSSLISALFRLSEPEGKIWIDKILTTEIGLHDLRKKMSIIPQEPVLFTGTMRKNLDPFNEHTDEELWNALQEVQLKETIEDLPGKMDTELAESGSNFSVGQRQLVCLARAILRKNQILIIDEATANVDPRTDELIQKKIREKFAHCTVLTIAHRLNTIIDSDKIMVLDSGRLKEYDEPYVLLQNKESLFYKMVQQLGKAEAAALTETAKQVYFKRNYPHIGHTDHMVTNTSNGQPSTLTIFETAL
The series is described as follows: Inhibition of human MRP4 overexpressed in Sf9 cell membrane vesicles assessed as uptake of [3H]-estradiol-17beta-D-glucuronide in presence of ATP and GSH measured after 20 mins by membrane vesicle transport assay. Format: ADME, cell-based.

A short description of series [3]: Ratio of drug concentration at steady state in human at 100 to 600 mg, po QD after 24 hrs to IC50 for human BSEP overexpressed in Sf9 insect cells. Format: ADME, organism-based. Particulars: in vivo.
Series [4] deals with ATP-binding cassette sub-family C member 2 (Homo sapiens, UniProt Q92887). The series can be described thus: Inhibition of human MRP2 overexpressed in Sf9 cell membrane vesicles assessed as uptake of [3H]-estradiol-17beta-D-glucuronide in presence of ATP and GSH measured after 20 mins by membrane vesicle transport assay.
Sequence of ATP-binding cassette sub-family C member 2 (Q92887 whole entry): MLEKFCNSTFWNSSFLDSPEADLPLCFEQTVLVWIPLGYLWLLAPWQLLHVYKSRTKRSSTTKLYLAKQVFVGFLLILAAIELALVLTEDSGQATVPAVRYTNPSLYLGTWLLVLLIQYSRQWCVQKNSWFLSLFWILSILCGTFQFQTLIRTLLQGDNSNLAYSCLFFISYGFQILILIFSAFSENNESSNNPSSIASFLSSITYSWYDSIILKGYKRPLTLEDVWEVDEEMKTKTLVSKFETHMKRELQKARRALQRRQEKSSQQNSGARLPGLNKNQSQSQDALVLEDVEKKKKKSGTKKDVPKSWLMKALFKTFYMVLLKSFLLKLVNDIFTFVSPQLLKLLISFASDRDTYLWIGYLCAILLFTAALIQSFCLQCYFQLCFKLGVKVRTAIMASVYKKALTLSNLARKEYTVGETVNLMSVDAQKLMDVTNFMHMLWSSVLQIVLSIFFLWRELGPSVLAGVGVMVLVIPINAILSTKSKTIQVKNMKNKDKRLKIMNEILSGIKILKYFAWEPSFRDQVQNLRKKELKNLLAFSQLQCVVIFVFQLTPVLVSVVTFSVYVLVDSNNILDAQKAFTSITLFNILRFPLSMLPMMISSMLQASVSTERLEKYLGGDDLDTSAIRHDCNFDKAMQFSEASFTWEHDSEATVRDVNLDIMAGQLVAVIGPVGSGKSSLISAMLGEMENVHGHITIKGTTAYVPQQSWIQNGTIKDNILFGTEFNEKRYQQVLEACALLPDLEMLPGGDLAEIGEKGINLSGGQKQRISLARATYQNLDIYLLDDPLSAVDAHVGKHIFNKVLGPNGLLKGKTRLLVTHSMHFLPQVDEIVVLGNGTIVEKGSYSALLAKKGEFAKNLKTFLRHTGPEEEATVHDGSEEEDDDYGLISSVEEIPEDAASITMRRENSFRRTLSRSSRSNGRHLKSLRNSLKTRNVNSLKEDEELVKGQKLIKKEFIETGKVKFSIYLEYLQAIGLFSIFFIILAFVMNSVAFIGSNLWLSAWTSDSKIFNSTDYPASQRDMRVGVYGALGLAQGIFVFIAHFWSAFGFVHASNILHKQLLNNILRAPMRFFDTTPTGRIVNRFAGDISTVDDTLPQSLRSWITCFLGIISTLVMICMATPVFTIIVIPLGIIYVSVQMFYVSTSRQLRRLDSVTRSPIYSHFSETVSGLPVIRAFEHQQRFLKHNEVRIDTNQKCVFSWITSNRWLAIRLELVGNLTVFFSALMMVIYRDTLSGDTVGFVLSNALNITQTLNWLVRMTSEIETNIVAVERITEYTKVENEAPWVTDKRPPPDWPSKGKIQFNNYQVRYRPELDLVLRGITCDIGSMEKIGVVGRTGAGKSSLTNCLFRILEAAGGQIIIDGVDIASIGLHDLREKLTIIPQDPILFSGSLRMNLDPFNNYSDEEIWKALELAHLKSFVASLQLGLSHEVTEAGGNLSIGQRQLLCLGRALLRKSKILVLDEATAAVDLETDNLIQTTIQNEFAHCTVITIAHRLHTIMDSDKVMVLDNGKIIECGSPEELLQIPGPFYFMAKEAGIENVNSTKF
Series [5] deals with ATP-binding cassette sub-family C member 3 (Homo sapiens, UniProt O15438). The series can be described thus: Inhibition of human MRP3 overexpressed in Sf9 insect cell membrane vesicles assessed as uptake of [3H]-estradiol-17beta-D-glucuronide in presence of ATP and GSH measured after 10 mins by membrane vesicle transport assay. The series is classed as ADME, cell-based.
Sequence of ATP-binding cassette sub-family C member 3 (O15438 whole entry): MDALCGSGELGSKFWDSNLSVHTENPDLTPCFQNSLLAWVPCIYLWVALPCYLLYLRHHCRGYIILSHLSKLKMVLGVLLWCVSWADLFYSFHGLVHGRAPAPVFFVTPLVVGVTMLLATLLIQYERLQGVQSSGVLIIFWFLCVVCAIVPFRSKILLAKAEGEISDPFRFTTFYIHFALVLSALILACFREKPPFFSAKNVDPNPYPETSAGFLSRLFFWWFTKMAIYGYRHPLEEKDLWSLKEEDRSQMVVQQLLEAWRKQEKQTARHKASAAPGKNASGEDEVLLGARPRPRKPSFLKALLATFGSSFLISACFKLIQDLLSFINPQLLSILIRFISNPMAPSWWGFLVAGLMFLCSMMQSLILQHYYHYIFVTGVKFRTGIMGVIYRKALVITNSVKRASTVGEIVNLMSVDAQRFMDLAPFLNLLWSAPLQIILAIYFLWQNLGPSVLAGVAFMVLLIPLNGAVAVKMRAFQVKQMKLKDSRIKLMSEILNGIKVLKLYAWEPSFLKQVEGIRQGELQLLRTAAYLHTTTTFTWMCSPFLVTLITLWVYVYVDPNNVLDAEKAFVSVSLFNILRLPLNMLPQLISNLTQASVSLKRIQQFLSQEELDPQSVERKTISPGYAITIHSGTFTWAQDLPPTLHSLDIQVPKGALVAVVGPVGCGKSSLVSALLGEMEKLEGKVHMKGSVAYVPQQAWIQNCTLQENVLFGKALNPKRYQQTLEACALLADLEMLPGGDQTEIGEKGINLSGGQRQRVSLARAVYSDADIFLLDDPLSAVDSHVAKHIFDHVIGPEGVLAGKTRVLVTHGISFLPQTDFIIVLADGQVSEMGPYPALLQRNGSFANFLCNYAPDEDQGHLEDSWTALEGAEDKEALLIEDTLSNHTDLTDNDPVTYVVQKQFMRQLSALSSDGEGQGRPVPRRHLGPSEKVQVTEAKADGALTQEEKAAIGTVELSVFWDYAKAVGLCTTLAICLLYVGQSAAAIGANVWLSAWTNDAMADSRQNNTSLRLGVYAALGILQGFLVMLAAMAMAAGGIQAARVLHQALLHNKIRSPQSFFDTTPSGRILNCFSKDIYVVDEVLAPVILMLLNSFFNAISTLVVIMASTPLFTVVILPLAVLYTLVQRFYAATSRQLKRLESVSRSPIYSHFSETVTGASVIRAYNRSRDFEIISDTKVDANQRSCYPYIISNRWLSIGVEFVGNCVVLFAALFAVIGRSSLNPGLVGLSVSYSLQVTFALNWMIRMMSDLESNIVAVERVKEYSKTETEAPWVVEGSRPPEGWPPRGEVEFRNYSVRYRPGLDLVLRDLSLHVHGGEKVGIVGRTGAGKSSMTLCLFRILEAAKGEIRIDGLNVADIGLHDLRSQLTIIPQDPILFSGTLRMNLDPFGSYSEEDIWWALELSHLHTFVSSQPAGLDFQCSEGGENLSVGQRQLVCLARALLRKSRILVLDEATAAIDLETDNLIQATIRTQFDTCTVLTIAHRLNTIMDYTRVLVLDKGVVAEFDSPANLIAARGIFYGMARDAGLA
A short description of series [6]: AUC in human at 100 to 600 mg, po QD after 24 hrs. Format: ADME, organism-based. Particulars: in vivo.
Series [7] can be described thus: Ratio of drug concentration at steady state in human at 20 to 100 mg, po QD or 60 mg, po BID after 12 hrs to IC50 for human BSEP overexpressed in Sf9 insect cells. The series is classed as ADME, organism-based. To be noted: in vivo.
In series [8] the target is Bile salt export pump (Homo sapiens, UniProt O95342). The series can be described thus: Inhibition of human BSEP overexpressed in Sf9 cell membrane vesicles assessed as uptake of [3H]-taurocholate in presence of ATP measured after 15 to 20 mins by membrane vesicle transport assay. Format: ADME, cell-based.
Sequence of Bile salt export pump (O95342 whole entry): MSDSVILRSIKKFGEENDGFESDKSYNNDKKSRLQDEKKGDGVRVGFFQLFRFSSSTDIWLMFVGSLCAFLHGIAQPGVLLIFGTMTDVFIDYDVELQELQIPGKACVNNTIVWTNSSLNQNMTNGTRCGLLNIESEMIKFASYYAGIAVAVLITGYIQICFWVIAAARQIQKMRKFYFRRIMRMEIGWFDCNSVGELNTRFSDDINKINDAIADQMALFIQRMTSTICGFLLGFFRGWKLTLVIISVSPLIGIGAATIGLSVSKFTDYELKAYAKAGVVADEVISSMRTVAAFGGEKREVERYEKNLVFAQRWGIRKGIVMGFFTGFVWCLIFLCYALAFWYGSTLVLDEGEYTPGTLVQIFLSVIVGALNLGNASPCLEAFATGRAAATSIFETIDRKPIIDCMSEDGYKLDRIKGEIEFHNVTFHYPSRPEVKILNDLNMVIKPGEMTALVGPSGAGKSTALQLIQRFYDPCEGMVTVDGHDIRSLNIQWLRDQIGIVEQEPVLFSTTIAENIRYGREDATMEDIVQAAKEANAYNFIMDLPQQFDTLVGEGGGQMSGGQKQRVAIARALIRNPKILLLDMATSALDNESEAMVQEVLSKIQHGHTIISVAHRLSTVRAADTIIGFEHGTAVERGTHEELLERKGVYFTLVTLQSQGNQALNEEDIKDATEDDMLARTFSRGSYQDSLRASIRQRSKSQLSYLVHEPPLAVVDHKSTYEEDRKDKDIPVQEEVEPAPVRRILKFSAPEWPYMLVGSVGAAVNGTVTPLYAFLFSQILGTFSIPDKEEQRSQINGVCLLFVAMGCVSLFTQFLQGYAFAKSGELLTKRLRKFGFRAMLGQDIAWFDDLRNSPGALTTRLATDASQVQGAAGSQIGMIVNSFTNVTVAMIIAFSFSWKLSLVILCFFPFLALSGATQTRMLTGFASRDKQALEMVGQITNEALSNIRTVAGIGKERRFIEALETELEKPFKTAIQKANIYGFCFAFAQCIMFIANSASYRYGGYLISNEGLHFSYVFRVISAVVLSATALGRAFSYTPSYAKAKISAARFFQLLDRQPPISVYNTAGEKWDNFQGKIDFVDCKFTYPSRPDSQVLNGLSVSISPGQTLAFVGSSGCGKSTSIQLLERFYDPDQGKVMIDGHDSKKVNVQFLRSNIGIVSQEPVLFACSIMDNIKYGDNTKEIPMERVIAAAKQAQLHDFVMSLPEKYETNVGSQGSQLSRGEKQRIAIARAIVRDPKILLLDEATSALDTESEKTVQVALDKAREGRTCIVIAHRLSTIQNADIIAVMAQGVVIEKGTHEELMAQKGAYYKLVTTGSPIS
Series [9] in a line: Drug concentration at steady state in human at 20 to 100 mg, po QD or 60 mg, po BID after 12 hrs. Format: ADME, organism-based. Particulars: in vivo, read-out: Css.
Series [10] is described as follows: AUC in human at 20 to 100 mg, po QD or 60 mg, po BID after 12 hrs. Format: ADME, organism-based. To be noted: in vivo.
The nature of series [11]: Drug concentration at steady state in human at 40 to 80 mg, po QD after 24 hrs. The series is classed as ADME, organism-based. To be noted: in vivo, read-out: Css.
Series [12] is described as follows: Ratio of drug concentration at steady state in human at 40 to 80 mg, po QD after 24 hrs to IC50 for human BSEP overexpressed in Sf9 insect cells. The series is classed as ADME, organism-based. To be noted: in vivo.
The nature of series [13]: Ratio of drug concentration at steady state in human at 40 to 80 mg, po QD after 24 hrs to IC50 for human MRP4 overexpressed in Sf9 insect cells. The series is classed as ADME, organism-based. To be noted: in vivo.
A short description of series [14]: AUC in human at 40 to 80 mg, po QD after 24 hrs. The series is classed as ADME, organism-based. Particulars: in vivo.
A short description of series [15]: Ratio of drug concentration at steady state in human at 40 to 80 mg, po TID after 8 hrs to IC50 for human BSEP overexpressed in Sf9 insect cells. To be noted: in vivo. The series is classed as ADME, organism-based.
The nature of series [16]: Ratio of drug concentration at steady state in human at 40 to 80 mg, po TID after 8 hrs to IC50 for human MRP4 overexpressed in Sf9 insect cells. Particulars: in vivo. Format: ADME, organism-based.
Series [17] can be described thus: Drug concentration at steady state in human at 40 to 80 mg, po TID after 8 hrs. Format: ADME, organism-based. To be noted: in vivo, read-out: Css.
The nature of series [18]: AUC in human at 40 to 80 mg, po TID after 8 hrs. To be noted: in vivo. Format: ADME, organism-based.
Series [19] in a line: Ratio of drug concentration at steady state in human at 10 to 20 mg, po BID after 12 hrs to IC50 for human BSEP overexpressed in Sf9 insect cells. The series is classed as ADME, organism-based. Particulars: in vivo.
Series [20] in a line: Ratio of drug concentration at steady state in human at 10 to 20 mg, po BID after 12 hrs to IC50 for human MRP2 overexpressed in Sf9 insect cells. The series is classed as ADME, organism-based. Particulars: in vivo.
A short description of series [21]: AUC in human at 10 to 20 mg, po BID after 12 hrs. Format: ADME, organism-based. To be noted: in vivo.
Series [22] can be described thus: Drug concentration at steady state in human at 10 to 20 mg, po BID after 12 hrs. The series is classed as ADME, organism-based. Particulars: in vivo, read-out: Css.
Series [23] in a line: Ratio of drug concentration at steady state in human at 10 to 20 mg, po BID after 12 hrs to IC50 for human MRP4 overexpressed in Sf9 insect cells. Format: ADME, organism-based. To be noted: in vivo.

The term IC50 denotes the concentration that gives 50% inhibition. As a reminder, the AUC is the area under the concentration-time curve, a measure of exposure. A high value points to high exposure.

Consider `CCOC(=O)Nc1ccc(NCc2ccc(F)cc2)nc1N` [FLUPIRTINE], for which the concentration at 24 h in series [1] turned out to be 0.832 µM. The IC50 in series [2], in [4] and in series [5] was > 133 µM in each case. In addition, the Ratio in [3] is 0.023. For the same compound, the AUC at 24 h in [6] worked out at 20 µM·h.
As to `COCCCOc1ccnc(C[S+]([O-])c2nc3ccccc3[n-]2)c1C.[Na+]` (configuration not stated) [RABEPRAZOLE SODIUM], the IC50 was > 133 µM in series [2], 33.9 µM in [8], > 133 µM in series [4] and > 133 µM in [5]. Moreover, in series [7], the Ratio is listed as 0.036. Besides, the concentration at 12 h in series [9] was found to be 1.21 µM. Besides, the AUC at 12 h in [10] worked out at 14.5 µM·h.
For `Cc1nc(-c2ccc(OCC(C)C)c(C#N)c2)sc1C(=O)O` [FEBUXOSTAT], the IC50 is 1.9 µM in series [2], 42.9 µM in [8], > 133 µM in series [4] and > 133 µM in series [5]. For the same compound, the concentration at 24 h in series [11] is 1.05 µM. Moreover, the Ratio is reported as 0.024 in [12] and 0.55 in series [13]. This compound displayed an AUC at 24 h in [14] of 25.1 µM·h.
Regarding `CCOc1ccc(/C=C2\NCCc3cc(OCC)c(OCC)cc32)cc1OCC` [DROTAVERINE], the values for the IC50 in series [2], in series [4] and in series [5] were 24.5 µM, > 133 µM and > 133 µM, respectively. For the same compound, the Ratio in series [15] was 0.028; in [16] it was 0.042. Moreover, the concentration at 8 h in series [17] worked out at 1.02 µM. In series [18], this compound displayed an AUC at 8 h of 8.18 µM·h.
For the compound `COc1cc(C(=O)NS(=O)(=O)c2ccccc2C)ccc1Cc1cn(C)c2ccc(NC(=O)OC3CCCC3)cc12` [ZAFIRLUKAST], the IC50 in series [2] is 12.1 µM; in series [8], 11.1 µM; in series [4], 58.8 µM; in series [5] it was > 133 µM. Further, the Ratio is 0.027 in series [19], 0.005 in series [20] and 0.025 in series [23]. In [21], this compound gave an AUC at 12 h of 3.6 µM·h. The concentration at 12 h in [22] was 0.3 µM.
